Patent US9211290B2, “Solid dispersions of amorphous paroxetine mesylate” (priority 2012, dated 2015)

How the values were obtained:
[1] = Physical stability of solid dispersions exposed in open containers to temperature/humidity stress (PLM, XRPD); format: physicochemical
Experimental: X-ray Powder Diffraction (XRPD): XRPD patterns were collected using a PANalytical X'Pert Pro diffractometer. The specimen was analyzed using Cu radiation produced using an Optix long fine-focus source. An elliptically graded multilayer mirror was used to focus the Cu Kα X-rays of the source through the specimen and onto the detector. The specimen was sandwiched between 3-micron thick films, analyzed in transmission geometry, and rotated to optimize orientation statistics. Soller slits were used for the incident and diffracted beams to minimize axial divergence. Diffraction patterns were collected using a scanning position-sensitive detector (X'Celerator) located 240 mm from the specimen. Prior to the analysis, a silicon specimen (NIST standard reference material 640d) was analyzed to verify the position of the silicon 111 peak.
Polarized Light Microscopy (PLM): Polarized light microscopy was performed using a Leica DM LP microscope equipped with Spot Insight color camera (model 3.2.0). […]
Physical stability experiments were conducted by exposing the dispersions in open containers at Room Temperature (RT) and at elevated temperature and different humidities (expressed as relative humidity, RH). […]
Physical stability was evaluated visually at RT/75% RH after approximately 24 h by PLM for evidence of birefringence and extinction indicative of crystalline material. […]

[2] = Aqueous solubility of paroxetine mesylate Form A; format: physicochemical; conditions: water

Structure (SMILES): CS(=O)(=O)O.Fc1ccc([C@@H]2CCNC[C@H]2COc2ccc3c(c2)OCO3)cc1 [Example 1-2, paroxetine mesylate]
- Acceptable Physical Stability? RT/58% RH 3 d ([1]; 25° C./58% RH used instead of RT/58% RH (footnote b), 3 d): N
- Acceptable Physical Stability? 60° C./75% RH 2 h ([1]; 60° C./75% RH, 2 h): N

Structure (SMILES): CS(=O)(=O)O.Fc1ccc([C@@H]2CCNC[C@H]2COc2ccc3c(c2)OCO3)cc1 [paroxetine mesylate Form A, paroxetine mesylate]
- solubility [2]: > 1000 mg/mL
